Laboratory results published in paper PMC10934024, “Protein–Ligand Binding and Structural Modelling Studies of Pheromone-Binding Protein-like Sol g 2.1 from Solenopsis geminata Fire Ant Venom” (Molecules, 2024).

Columns and labels:
rSol g 2.1 protein [1] = biological target: T1, rSol g 2.1 protein (Solenopsis geminata, UniProt A0A9E7V488); assay: Fluorescence competitive binding assay (NPN displacement); conditions: 2 µM rSol g 2.1 with 4 µM NPN, ligand 0-4 µM, 50 mM Tris-HCl pH 7.4
T1 sequence (A0A9E7V488 1-119): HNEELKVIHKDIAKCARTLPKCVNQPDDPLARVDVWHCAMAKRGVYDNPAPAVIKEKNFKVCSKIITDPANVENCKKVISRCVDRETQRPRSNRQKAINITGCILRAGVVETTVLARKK
Protocol: The binding of the endogenous ligands, including decane, undecane dodecane, and tridecane, to rSol g 2.1 protein was measured by a competitive binding assay. In this procedure, 1 mL of rSol g 2.1 protein (2 µM) in 50 mM Tris-HCl (pH 7.4) containing NPN (4 µM) was titrated with each ligand (1 mM in methanol stock) to the final concentrations of 0, 0.125, 0.375, 0.625, 0.875, 1.125, 2, 3, and 4 µM. Additionally, the same concentrations of the blended ligands, which consisted of decane (45%), undecane (36%), dodecane (15%), and tridecane (4%), were used to investigate the blend effect of Sol g 2.1 protein. The resulting isotherms were fitted (GraphPad Prism 9) to both a one-site model and an allosteric model.

Sol i 2 = conditions: cited from earlier work
rSol g 2.1 protein [2] = biological target: T1, rSol g 2.1 protein; assay: Fluorescence binding assay, NPN titration into rSol g 2.1
Protocol: The fluorescence binding assay of rSol g 2.1 protein was conducted using the fluorescent probe N-phenyl-1-naphtylamine (NPN). […] The fluorescence intensity was measured on a PTI QuantaMaster fluorometer (Horiba Ltd., Kyoto, Japan) with a 337 nm excitation wavelength and emission scan ranging from 300–500 nm at room temperature in triplicate. To obtain the equilibrium dissociation (Kd) value, the fluorescence intensity at the maximal emission wavelength 400 nm was plotted for each NPN concentration. Data were fitted to a specific allosteric binding model using GraphPad Prism Version 9.0 (GraphPad Software, San Diego, CA, USA). Y = Bmax × X^h/(Kd^h + X^h) was used as an equation in the fitting model, where Bmax is the maximal specific binding in the same unit as Y, X is the NPN concentration (µM), and Y is the fluorescence intensity counts/second. Moreover, h is the Hill slope, which is 1.0 for cases with one site. If there is more than one binding site per protein and there is cooperativity, then h > 1.0, and the graph takes on a sigmoidal appearance.

Row | SMILES | Kd (rSol g 2.1 protein [1]) [nM] | binding affinity (Sol i 2) | Kd (rSol g 2.1 protein [2]; 2 µM rSol g 2.1, 50 mM Tris-HCl pH 7.4, NPN 0-12 µM, emission 400 nm, specific binding with Hill slope model) [nM] | h slope (Hill slope) (rSol g 2.1 protein [2]; same fit as Kd of NPN)
1 | CCCCCCCCCCCCC [tridecane, Tridecane] | 380 |  |  | 
2 | CCCCCCCCCCC [undecane, Undecane] | 330 | high binding affinity |  | 
3 | C=CC(=C)CC/C=C(\C)CCC=C(C)C [(E)-β-farnesene] |  | high binding affinity |  | 
4 | c1ccc(Nc2cccc3ccccc23)cc1 [NPN, N-phenyl-1-naphtylamine] |  |  | 1900 ± 80 | 1.64 ± 0.12
5 | CCCCCCCCCC [decane, Decane] | 320 | high binding affinity |  | 
6 | CCCCCCCCCCCC [dodecane, Dodecane] | 390 |  |  | 
